This is an account of results in patent publication US8618143B1, “Selective neuronal nitric oxide synthase inhibitors with azole substituents” (Northwestern University, priority 2010, dated 2013).

A value given as a limit tells only on which side of the number the result lay.

In one data set the target is nNOS (Rattus norvegicus, UniProt P29476). As to the kind of experiment: NOS inhibition assay (literature protocols), neuronal isoform. It counts as biochemical. As to conditions: for potency (in words): comment on Table 2. From the text:
Compounds 3a (not shown, below), 4a, 3c, and 4c were synthesized compounds for purpose of illustration, and 4a, 3c and 4c have been tested using literature protocols. (See, e.g., example 51 of the aforementioned incorporated '790 patent, example 12 of co-pending application Ser. No. 13/250,554 filed Sep. 30, 2011, also incorporated herein by reference in its entirety and, respectively, the references cited therein.) The activities are shown in Table 2.

A further data set deals with iNOS (Mus musculus, UniProt P29477). As to the kind of experiment: NOS inhibition assay (literature protocols), inducible isoform. It counts as biochemical. As to conditions: for selectivity i/n: ratio KI iNOS / KI nNOS.
Another data set concerns the target eNOS (Bos taurus, UniProt P29473). Description: NOS inhibition assay (literature protocols), endothelial isoform. It counts as biochemical. As to conditions: for selectivity e/n: ratio KI eNOS / KI nNOS.
For data set [1] the following is noted: pKa of the free azole ring of the side chain; cited from earlier work.

The Ki is the equilibrium dissociation constant of an inhibitor or competing ligand from its target. Higher therefore signals a looser hold on the target. As to `Cc1cc(N)nc(C[C@@H]2CNC[C@@H]2OCCNCCc2nccs2)c1` [Compound 3c], at nNOS, affinity was put at a Ki of 0.716 µM and the “potency (in words)” value is on record as “highly potent”. At iNOS, the Ki worked out at 23.1 µM and the selectivity i/n came out at 32.3. Besides, on eNOS, the Ki came out at 0.058 µM and the selectivity e/n was found to be 0.081.
As to `Cc1cc(N)nc(C[C@H]2CNC[C@H]2OCCNCCc2c[nH]cn2)c1` [Compound 4a], on nNOS, the affinity, expressed as Ki, was 1.18 µM and the “potency (in words)” value is on record as “moderate potency”. Besides, on iNOS, the Ki turned out to be 15 µM and the selectivity i/n was found to be 12.7. Besides, on eNOS, the Ki turned out to be 4.23 µM and the selectivity e/n is recorded as 3.58.
On to `Cc1cc(N)nc(C[C@H]2CNC[C@H]2OCCNCCc2nccs2)c1` [Compound 4c], for which, on nNOS, the affinity, expressed as Ki, was 0.044 µM and the “potency (in words)” value is recorded as “moderate potency”. Further, on iNOS, affinity was put at a Ki of 34.4 µM and the selectivity i/n is 782. Also, on eNOS, the Ki was 9.81 µM and the selectivity e/n worked out at 223.
`NCCc1c[nH]cn1` [Compound 5a]: in data set [1], the “approximate ring pKa” value was 7.1.
For the molecule `NCCc1nccs1` [Compound 5c], the “approximate ring pKa” value in data set [1] was 2.5.
As to `NCCn1ccnc1` [Compound 5e], in data set [1], the “approximate ring pKa” value was >7.1.
With `Cn1cncc1CCN` [Compound 5f], the “approximate ring pKa” value in data set [1] was >7.1.
In the case of `Cn1cnc(CCN)c1` [Compound 5g], in data set [1], the “approximate ring pKa” value is >7.1.
